# From paper PMC10763578 (Cell host & microbe, 2023)
# Biological target: CgaA (cytosolic glutathione amidotransferase A; FTN_0435) (Francisella tularensis, UniProt A0Q523)
# Conditions: 10 mM substrate, 1 uM enzyme, 60 min, 300 mM NaCl, 50 mM Tris-Cl pH 8.5, 37 °C
# CgaA (cytosolic glutathione amidotransferase A; FTN_0435), sequence (A0Q523 1-235): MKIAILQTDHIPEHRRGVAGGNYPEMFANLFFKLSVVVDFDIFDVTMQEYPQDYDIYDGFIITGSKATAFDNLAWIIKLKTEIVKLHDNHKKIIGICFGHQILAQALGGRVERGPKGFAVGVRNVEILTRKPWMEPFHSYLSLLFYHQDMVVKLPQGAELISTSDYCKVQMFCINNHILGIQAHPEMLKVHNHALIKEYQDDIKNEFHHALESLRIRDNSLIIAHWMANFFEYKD
smiles,measurement,value
"NC(=O)CC[C@H](N)C(=O)O [Gln, glutamine]","glutamate release, coupled colorimetric kit (A450)",we detected only a low level of glutamate accumulation following incubation of CgaA with glutamine
